From publication PMC10761937, “Functional engineering of human iPSC‐derived parasympathetic neurons enhances responsiveness to gastrointestinal hormones” (FEBS Open Bio, 2023)

Legend:
Type in all cases: cell-based, human
GLP1R = experiment: cAMP accumulation assay, GLP1R‐HEK293T cells; conditions: 0, 0.01, 0.1, 1, 10, 100 nM GLP1, 0.5 mM IBMX, 37 °C, 30 min, cAMP ELISA, n = 3
Protocol: (§1) HEK293T cells (Lenti‐X 293T Cell line; TaKaRa, Shiga, Japan) were maintained in Dulbecco's Modified Eagle Medium (DMEM; Fujifilm Wako Pure Chemical Industries, Osaka, Japan) supplemented with 10% fetal bovine serum (Biowest, Nuaillé, France), 1% non‐essential amino acids (NEAA) (Fujifilm Wako Pure Chemical Industries), and 1% penicillin–streptomycin (P/S) (Fujifilm Wako Pure Chemical Industries) and cultured in non‐coated culture plates at 37 °C and in an incubator with 5% CO2. The culture medium was replaced every 2–3 days. At 80–90% confluence, the cell colonies were digested into single cells using TrypLE Express (Thermo Fisher Scientific). The resulting cells were used for lentiviral transfection and agonist experiments.
(§2) Figure S1 presents the protocol used for this experiment. Lentiviral vectors were acquired from VectorBuilder (VectorBuilder Japan, Inc., Kanagawa, Japan). The mCherry expression vector (pLV‐Puro‐EF1A‐mCherry) was used as a control. pMD2.g plasmid (Addgene plasmid# 12259; RRID: Addgene 12259, Watertown, MA, USA) and psPAX2 plasmids (Addgene plasmid# 12260; RRID: Addgene 12260) were used as packaging plasmids. To produce lentiviruses, HEK293T cells were transduced with lentiviral vectors and packaging constructs containing 2 μg of lentivirus plasmids, 1 μg of pMD2.g, and 1 μg of psPAX2 plasmids using polyethyleneimine (PEI; Polysciences Inc., Warrington, PA, USA). […]

NPY2R [1] = experiment: Ca^2+ imaging, NPY2R‐HEK293T cells; conditions: PYY (3-36) per Fig. S2B, Fluo‐8 AM, Ringer's solution pH 7.4, ΔF/F0, n = 10
Protocol: as §1
Figure S1 presents the protocol used for this experiment. Lentiviral vectors were acquired from VectorBuilder (VectorBuilder Japan, Inc., Kanagawa, Japan). […]
Transduced HEK293T and neurons were incubated with 10 μM Fluo‐8 AM, a calcium indicator (AAT Bioquest, Pleasanton, CA, USA), in each culture medium (Cell lines and cell culture and Induction to parasympathetic neurons sections) at 37 °C for 30 min. […] Fluorescence (excitation: 490 nm, emission: 525 nm) was detected using a confocal spinning disk confocal laser scanning unit (CSU‐W1; Yokogawa Electric, Tokyo, Japan) and an LED light (X‐Cite 120LED; Opto Science, Tokyo, Japan). […]

NPY2R [2] = experiment: cAMP accumulation assay, NPY2R‐HEK293T cells; conditions: 0, 1, 10, 100 nM PYY, 0.5 mM IBMX, 10 μM FSK, 37 °C, 30 min, cAMP ELISA, n = 3
Protocol: as §1, §2

Substance | cAMP production (GLP1R) | Concentration giving response (increased intracellular Ca^2+ concentration) (NPY2R [1]) [nM] | Intracellular cAMP levels (Gi function) (NPY2R [2])
GLP1: GLP1 (4280‐v; Peptide Institute, Inc.); GLP1 (7–37) in Ca2+ imaging (HAEGTFTSDVSSYLEGQAAKEFIAWLVKGRG; Glucagon-like peptide 1(7-37); UniProt P01275 98-128, looked up) | increased cAMP production with increasing GLP1 concentration | – | –
PYY: PYY (4400‐v; Peptide Institute, Inc.); PYY (3–36) in Ca2+ imaging | – | > 10 | decreased in a concentration‐dependent manner
